Data: BigSolDB 2.1

C[N+](C)(C)CC(=O)[O-]
Conditions | solubility (mole fraction)
in ethanol, 282.95 K | 0.0264
in ethanol, 288.15 K | 0.0298
in ethanol, 293.65 K | 0.0336
in ethanol, 298.45 K | 0.0372
in ethanol, 303.05 K | 0.041
in isopropanol, 283.45 K | 0.00458
in isopropanol, 288.65 K | 0.0054
in isopropanol, 293.15 K | 0.00622
in isopropanol, 298.45 K | 0.0071
in isopropanol, 303.35 K | 0.00823
in methanol, 283.15 K | 0.117
in methanol, 288.15 K | 0.121
in methanol, 293.55 K | 0.126
in methanol, 298.25 K | 0.131
in methanol, 303.2 K | 0.136
in n-butanol, 283.45 K | 0.00812
in n-butanol, 288.7 K | 0.00964
in n-butanol, 293.05 K | 0.0109
in n-butanol, 298.35 K | 0.0125
in n-butanol, 302.9 K | 0.0142
in n-propanol, 282.85 K | 0.0134
in n-propanol, 288.15 K | 0.0154
in n-propanol, 293.55 K | 0.0177
in n-propanol, 298.23 K | 0.02
in n-propanol, 303.45 K | 0.0225
in water, 283.15 K | 0.184
in water, 288.25 K | 0.189
in water, 293.2 K | 0.194
in water, 298.35 K | 0.2
in water, 303.25 K | 0.206
